Laboratory results taken from patent EP1948196B1, “USE OF TETRAORGANOSILICON COMPOUNDS” (Salama, Zoser B., priority 2005, dated 2007).
Values after ≈ are worked out from the molar mass of the structure shown. Read-outs that look alike come from different tables or passages of the source. Numbered stars: 1 amine (or outer) side, 2 acyl side, 3 side chain; on linkers, the order of the positions; unused ones are H or OH. Bridge positions count the residues as written; N and C are the ends. Peptide text beside a SMILES is read from it. I, II: the chains in the order shown. X2 = c1ccc([Si](O[*:1])(O[*:2])c2ccccc2)cc1; X1 = C[Si](C)(O[*:1])O[*:2]

Assays:
[1] = tested on: Rhino-Viren; assay: Antiviral effect; conditions: in particular as vesicles holding antisense constructs
[2] = tested on: Osteosarkome; assay: Effect on osteosarcomas
[3] = tested on: Hepatitis B-Viren; assay: Antiviral effect; conditions: in particular as vesicles holding antisense constructs
[4] = tested on: Angiosarkome; assay: Effect on angiosarcomas
[5] = tested on: Seminome; assay: Effect on seminomas
[6] = tested on: Plattenepihtelkarzinomen oder Plasmozytomen; assay: Effect against metastasis in rats; assay type: in vivo; conditions: in Ratten
[7] = tested on: Lymphome; assay: Effect on lymphomas
[8] = tested on: Plasmozytome
[9] = tested on: Angiosarkome; assay: Effect on angiosarcomas; remark: listed apart in the source
[10] = tested on: BxPC3 (pankreatisches Adenokarzinom); assay: MTT test, triplicate, two-fold dilutions; assay type: cell-based; conditions: Homo sapiens
Procedure: (§1) Die Silan wurden in Ethanol aufgelöst und in Zellkulturmedien in Konzentrationen von bis zu 500 µg/ml resuspendiert. Es wurden MTT Tests in dreifacher Ausführung durchgeführt, für welche doppelte Lösungen (7 Schritte) und colo205 (Kofon-Karzinom), BxPC3 (pankreatisches Adenokarzinom) sowie T47D (Brustkrebs) benutzt wurden.

[11] = tested on: T47D (Brustkrebs); assay: MTT test, triplicate, two-fold dilutions; assay type: cell-based; conditions: Homo sapiens, T47D, read-out: IC50 T47D
Procedure: as §1

[12] = tested on: colo205 (Kofon-Karzinom); assay: MTT test, triplicate, two-fold dilutions; assay type: cell-based; conditions: Homo sapiens
Procedure: as §1

[13] = BXPC-3, up to 500 µg/ml, read-out: IC50 BxPC3
[14] = COLO 205, up to 500 µg/ml, read-out: IC50 Colo205
[15] = COLO 205, read-out: IC50 Colo205

For CCCCCCCC/C=C\CCCCCCCC(=O)O[Si](OC(=O)CCCCCCC/C=C\CCCCCCCC)(c1ccccc1)c1ccccc1, the “Wirkung gegen Rhino-Viren” value [1] was “zeigen eine Wirkung” and the “Wirkung auf Osteosarkome” value [2] was “zeigen eine Wirkung”.
With CCCCC/C=C\C/C=C\CCCCCCCC(=O)O[Si](OC(=O)CCCCCCC/C=C\C/C=C\CCCCC)(c1ccccc1)c1ccccc1 [Di (linoylooxy)diphenylsilan] the “Wirkung gegen Rhino-Viren” value [1] was “zeigen eine Wirkung” and the “Wirkung auf Osteosarkome” value [2] was “zeigen eine Wirkung”.
CCCCCCCCCCCC(=O)O[Si](CCC)(CCC)OC(=O)CCCCCCCCCCC [Di(dodecanoyloxy)dipropylsilan] was tested, and the “Wirkung gegen Hepatitis B-Viren” value [3] was “zeigen eine Wirkung”, the “Wirkung gegen Angiosarkome” value [4] was “zeigen eine Wirkung” and the “Wirkung auf Seminome” value [5] was “zeigen eine Wirkung”.
For CCCCCCCCCCCCCCCCC(=O)O[Si](C)(C)OC(=O)CCCCCCCCCCCCCCCC [Di(heptadecanoyloxy)dimethylslan], the “Wirkung gegen die Metastasierung von Plattenepihtelkarzinomen oder Plasmozytomen” value [6] was “zeigen eine Wirkung”.
In the case of CCCCCCCCCCCCCCCCC(=O)O[Si](OC(=O)CCCCCCCCCCCCCCCC)(c1ccccc1)c1ccccc1 [Di(heptadecanoyloxy)diphenylsilan], the “Wirkung gegen Rhino-Viren” value [1] is reported as “zeigen eine Wirkung” and the “Wirkung auf Osteosarkome” value [2] is reported as “zeigen eine Wirkung”.
CC/C=C\C/C=C\C/C=C\CCCCCCCC(=O)O[Si](OC(=O)CCCCCCC/C=C\C/C=C\C/C=C\CC)(c1ccccc1)c1ccccc1 [Di(linolenoylooxy)diphenylsilan] was tested, and the “Wirkung gegen Rhino-Viren” value [1] was “zeigen eine Wirkung” and the “Wirkung auf Osteosarkome” value [2] was “zeigen eine Wirkung”.
CCCCCCCCC(=O)O[Si](CC)(CC)OC(=O)CCCCCCCC [Di(nonanoyloxy)diethyisilan] was tested, and the “Wirkung gegen die Metastasierung von Plattenepihtelkarzinomen oder Plasmozytomen” value [6] was “zeigen eine Wirkung”.
With CCCCCCCCC(=O)O[Si](OC(=O)CCCCCCCC)(c1ccccc1)c1ccccc1 [Di(nonanoyloxy)diphenylsilan] the “Wirkung gegen Rhino-Viren” value [1] was “zeigen eine Wirkung” and the “Wirkung auf Osteosarkome” value [2] was “zeigen eine Wirkung”.
In the case of CCCCCCCC(=O)O[Si](CC)(CC)OC(=O)CCCCCCC [Di(octanoyloxy)diethylsilan], the “Wirkung gegen die Metastasierung von Plattenepihtelkarzinomen oder Plasmozytomen” value [6] is reported as “zeigen eine Wirkung”.
With CCCCCCCCCCCCCCC(=O)O[Si](C)(C)OC(=O)CCCCCCCCCCCCCC [Di(pentadecanoyloxy)dimethylsilan] the “Wirkung gegen die Metastasierung von Plattenepihtelkarzinomen oder Plasmozytomen” value [6] was “zeigen eine Wirkung”.
CCCCCCCCCCCCCCC(=O)O[Si](CCC)(CCC)OC(=O)CCCCCCCCCCCCCC [Di(pentadecanoyloxy)dipropylsilan] was tested, and the “Wirkung gegen Hepatitis B-Viren” value [3] was “zeigen eine Wirkung”, the “Wirkung gegen Angiosarkome” value [4] was “zeigen eine Wirkung” and the “Wirkung auf Seminome” value [5] was “zeigen eine Wirkung”.
With CCCCCCCCCCCCCC(=O)O[Si](CCC)(CCC)OC(=O)CCCCCCCCCCCCC [Di(tetradecanoyloxy)dipropylsilan] the “Wirkung gegen Hepatitis B-Viren” value [3] was “zeigen eine Wirkung”, the “Wirkung gegen Angiosarkome” value [4] was “zeigen eine Wirkung” and the “Wirkung auf Seminome” value [5] was “zeigen eine Wirkung”.
For CCCCCCCCCCCCC(=O)O[Si](CCC)(CCC)OC(=O)CCCCCCCCCCCC [Di(tridecanoyloxy)dipropylsilan], the “Wirkung gegen Hepatitis B-Viren” value [3] was “zeigen eine Wirkung”, the “Wirkung gegen Angiosarkome” value [4] was “zeigen eine Wirkung” and the “Wirkung auf Seminome” value [5] was “zeigen eine Wirkung”.
For CCCCCCCCCCC(=O)O[Si](OC(=O)CCCCCCCCCC)(c1ccccc1)c1ccccc1 [Di(undecanoyloxy)diphenylsilan], the “Wirkung gegen Rhino-Viren” value [1] was “zeigen eine Wirkung” and the “Wirkung auf Osteosarkome” value [2] was “zeigen eine Wirkung”.
With C[Si](C)(OC(=O)[C@H](Cc1ccccc1)NC(=O)[C@H](Cc1ccccc1)NC(=O)[C@H](Cc1ccccc1)NC(=O)[C@H](Cc1ccccc1)NC(=O)[C@H](Cc1ccccc1)NC(=O)[C@H](Cc1ccccc1)NC(=O)[C@H](Cc1ccccc1)NC(=O)[C@@H](N)Cc1ccccc1)OC(=O)[C@H](Cc1ccccc1)NC(=O)[C@H](Cc1ccccc1)NC(=O)[C@H](Cc1ccccc1)NC(=O)[C@H](Cc1ccccc1)NC(=O)[C@H](Cc1ccccc1)NC(=O)[C@H](Cc1ccccc1)NC(=O)[C@H](Cc1ccccc1)NC(=O)[C@@H](N)Cc1ccccc1 [Dimethyl bis(octaphenylalanyl)silylester] (I: H-FFFFFFFF / II: H-FFFFFFFF; linker I:C-II:C via X1) the “Wirkung auf Lymphome” value [7] was “zeigen eine Wirkung”.
For N[C@@H](Cc1ccccc1)C(=O)N[C@@H](Cc1ccccc1)C(=O)N[C@@H](Cc1ccccc1)C(=O)N[C@@H](Cc1ccccc1)C(=O)N[C@@H](Cc1ccccc1)C(=O)N[C@@H](Cc1ccccc1)C(=O)N[C@@H](Cc1ccccc1)C(=O)N[C@@H](Cc1ccccc1)C(=O)N[C@@H](Cc1ccccc1)C(=O)N[C@@H](Cc1ccccc1)C(=O)O[Si](OC(=O)[C@H](Cc1ccccc1)NC(=O)[C@H](Cc1ccccc1)NC(=O)[C@H](Cc1ccccc1)NC(=O)[C@H](Cc1ccccc1)NC(=O)[C@H](Cc1ccccc1)NC(=O)[C@H](Cc1ccccc1)NC(=O)[C@H](Cc1ccccc1)NC(=O)[C@H](Cc1ccccc1)NC(=O)[C@H](Cc1ccccc1)NC(=O)[C@@H](N)Cc1ccccc1)(c1ccccc1)c1ccccc1 [Diphenyl bis(decaphenylalanyl) silylester] (I: H-FFFFFFFFFF / II: H-FFFFFFFFFF; linker I:C-II:C via X2), the “Wirkung auf Plasmozytome” value [8] was “zeigen eine Wirkung”.
In the case of CC(C)[C@H](N)C(=O)N[C@H](C(=O)N[C@H](C(=O)N[C@H](C(=O)N[C@H](C(=O)N[C@H](C(=O)N[C@H](C(=O)N[C@H](C(=O)N[C@H](C(=O)O[Si](OC(=O)[C@@H](NC(=O)[C@@H](NC(=O)[C@@H](NC(=O)[C@@H](NC(=O)[C@@H](NC(=O)[C@@H](NC(=O)[C@@H](NC(=O)[C@@H](NC(=O)[C@@H](N)C(C)C)C(C)C)C(C)C)C(C)C)C(C)C)C(C)C)C(C)C)C(C)C)C(C)C)(c1ccccc1)c1ccccc1)C(C)C)C(C)C)C(C)C)C(C)C)C(C)C)C(C)C)C(C)C)C(C)C [Diphenyl bis(nonavalyl)silylester] (I: H-VVVVVVVVV / II: H-VVVVVVVVV; linker I:C-II:C via X2), the “Wirkung gegen Angiosarkome” value [9] is reported as “zeigen eine Wirkung”.
In the case of CC(C)[C@H](N)C(=O)N[C@H](C(=O)N[C@H](C(=O)N[C@H](C(=O)N[C@H](C(=O)N[C@H](C(=O)N[C@H](C(=O)N[C@H](C(=O)O[Si](OC(=O)[C@@H](NC(=O)[C@@H](NC(=O)[C@@H](NC(=O)[C@@H](NC(=O)[C@@H](NC(=O)[C@@H](NC(=O)[C@@H](NC(=O)[C@@H](N)C(C)C)C(C)C)C(C)C)C(C)C)C(C)C)C(C)C)C(C)C)C(C)C)(c1ccccc1)c1ccccc1)C(C)C)C(C)C)C(C)C)C(C)C)C(C)C)C(C)C)C(C)C [Diphenyl bis(octavalyl)silylester] (I: H-VVVVVVVV / II: H-VVVVVVVV; linker I:C-II:C via X2), the “Wirkung gegen Angiosarkome” value [9] is reported as “zeigen eine Wirkung”.
For CC(C)[C@H](N)C(=O)N[C@H](C(=O)N[C@H](C(=O)N[C@H](C(=O)N[C@H](C(=O)O[Si](OC(=O)[C@@H](NC(=O)[C@@H](NC(=O)[C@@H](NC(=O)[C@@H](NC(=O)[C@@H](N)C(C)C)C(C)C)C(C)C)C(C)C)C(C)C)(c1ccccc1)c1ccccc1)C(C)C)C(C)C)C(C)C)C(C)C [Diphenyl bis(pentavalyl)silylester], the “Wirkung gegen Angiosarkome” value [9] was “zeigen eine Wirkung”.
In the case of CC(C)[C@H](N)C(=O)N[C@H](C(=O)N[C@H](C(=O)N[C@H](C(=O)O[Si](OC(=O)[C@@H](NC(=O)[C@@H](NC(=O)[C@@H](NC(=O)[C@@H](N)C(C)C)C(C)C)C(C)C)C(C)C)(c1ccccc1)c1ccccc1)C(C)C)C(C)C)C(C)C [Diphenyl bis(tetravalyl)silylester], the “Wirkung gegen Angiosarkome” value [9] is reported as “zeigen eine Wirkung”.
In the case of CCCCCCCCCCC(=O)O[Si](C)(C)OC(=O)CCCCCCCCCC [Si 2, Di (undecanoyloxy) dimethylsilan], the IC50 [10, 13] is reported as 80 mg/L (≈ 187 µM), the IC50 ([11]; up to 500 µg/ml) is reported as 125 mg/L (≈ 292 µM) and the IC50 [12, 14] is reported as 125 mg/L (≈ 292 µM). The “Wirkung gegen die Metastasierung von Plattenepihtelkarzinomen oder Plasmozytomen” value [6] was “zeigen eine Wirkung”.
CCCCCCCCCCCCC(=O)O[Si](C)(C)OC(=O)CCCCCCCCCCCC [Si 3, Di (tridecanoyloxy) dimethylsilan] gave an IC50 ([10]; BXPC-3, read-out: IC50 BxPC3) of 80 mg/L (≈ 165 µM), an IC50 [11] of 80 mg/L (≈ 165 µM) and an IC50 [12, 15] of 230 mg/L (≈ 474 µM). The “Wirkung gegen die Metastasierung von Plattenepihtelkarzinomen oder Plasmozytomen” value [6] was “zeigen eine Wirkung”.
CCCCCCCCCCC(=O)O[Si](CC)(CC)OC(=O)CCCCCCCCCC [Si 4, Di (undecanoyloxy) diethylslan] gave an IC50 [10, 13] of 100 mg/L (≈ 219 µM), an IC50 ([11]; up to 500 µg/ml) of 180 mg/L (≈ 394 µM) and an IC50 [12, 14] of 200 mg/L (≈ 438 µM). The “Wirkung gegen die Metastasierung von Plattenepihtelkarzinomen oder Plasmozytomen” value [6] was “zeigen eine Wirkung”.
For CCCCCCCCCCCCC(=O)O[Si](OC(=O)CCCCCCCCCCCC)(c1ccccc1)c1ccccc1 [Si 7, Di (tridecanoyloxy) diphenylslan], the “Wirkung gegen Rhino-Viren” value [1] was “zeigen eine Wirkung”, the IC50 [10, 13] was 60 mg/L (≈ 98.5 µM) and the IC50 ([11]; up to 500 µg/ml) was 80 mg/L (≈ 131 µM). For the same compound, the IC50 [12, 14] was 125 mg/L (≈ 205 µM) and the “Wirkung auf Osteosarkome” value [2] was “zeigen eine Wirkung”.
Work on CCCCCCCCCC(=O)O[Si](CC)(CC)OC(=O)CCCCCCCCC [Si 12, Di (decanoyloxy) diethylsilan] yielded an IC50 ([10]; BXPC-3, read-out: IC50 BxPC3) of 140 mg/L (≈ 327 µM), an IC50 [11] of 600 mg/L (≈ 1400 µM) and an IC50 [12, 15] of 300 mg/L (≈ 700 µM). For the same compound, the “Wirkung gegen die Metastasierung von Plattenepihtelkarzinomen oder Plasmozytomen” value [6] was “zeigen eine Wirkung”.
With Diethyl bis(biphenylalanyl)silylester the “Wirkung auf Lymphome” value [7] was “zeigen eine Wirkung”.
